Source: EP2753335B1, “AN ANTHRACYCLINE FOR THE TREATMENT OF SEPSIS” (Instituto de Medicina Molecular, priority 2011, dated 2013)
Structures can show the parent of a compound that is named as a salt. Where two headings read alike, the source gives them in different places. Starred links: 1 amine or outer side, 2 acyl side, 3 side chain; linkers in the order of their positions; H or OH if unused. Positions of bridges follow the written chain, without caps; N, C: chain ends. Non-standard residues stand in square brackets, D forms with d. Residues, ends and D or L forms follow the SMILES beside them. Chains are numbered I, II in the order given. Actinocin(9to1) = Cc1c2oc3c(C)ccc(C(=O)[*:1])c3nc-2c(C(=O)[*:2])c(N)c1=O; NMeV = CN[C@H](C(=O)O)C(C)C; Sar = CNCC(=O)O

Key:
TNF = assay: In vitro chemical screen (Spectrum collection): TNF secretion by E. coli challenged THP-1 cells, DAS-ELISA; assay type: cell-based, human
Protocol: (§1) We identified 45 leading candidates (Figure 1A and Table I) that inhibited both cytokines.
(§2) THP-1 human monocytes (American Tissue Culture Collection-ATCC TIB-202) were plated in 96 well plates at 10^6 cell/ml and incubated with each one of ∼2320 compounds included in the Spectrum collection (Microsource Discovery Systems, Gaylordsville, CT) at 10µM for 1 hour. Cells were then challenged with 4% PFA-fixed DH5α E.coli at a Multiplicity of Infection (MOI) of 20 bacterial cells per THP-1 cell for an additional 24 hours. The cell supernatants were collected and IL-1β and TNF cytokines quantified by DAS-ELISA, using Human IL-1β/IL-1F2 DuoSet® and Human TNF DuoSet® (R&D Systems ®), respectively, according to company's protocol.
(§3) We generated a working subset of The RNAi Consortium (TRC) shRNA lentiviral vector library ^33,33 that allows for the silencing of most of the genes that are either human kinases or phosphatases. This subset was composed of 1440 individually arrayed lentiviral shRNA vectors targeting ∼700 genes, after selecting the most efficient shRNAs (two on average) based on available silencing efficiency data from the Broad Institute of MIT and Harvard. THP-1 cells were plated in 96 well plates at 10^6 cell/ml and infected with shRNA-expressing lentivirus. 48 hrs later infected cells were selected with puromycin. After the 3 days of selection, plates were duplicated. One of the plates was used to measure the cell number using Alamar Blue® cell viability assay (Invitrogeia®), according to manufacturer's instructions. In the other plate, cells were stimulated with 4% PFA-fixed DH5α E.coli at a Multiplicity of Infection (MOI) of 20 bacterial cells per THP-1 cell. Twenty-four hours after stimulation, cell supernatants were collected and IL-1β and TNF cytokines quantified by DAS-ELISA. All data values from IL-1β and TNF secretion assays were normalized by dividing the amount of IL-1β and TNF in the conditioned media 24, 12, 8, 6, 4 or 2 hrs after E. coli stimulation by the number of cells in each well and then by the average concentration per cell of the plate. Results were logarithmic natural transformed. Scores were sorted in ascending order and graphed. We calculated 1.5 SDEVs above and below the mean to identify the genes that changed IL-1β and TNF secretion when silenced. The same approach was used to identify the compounds that changed IL-1β and TNF secretion. The selected genes were submitted to two or more rounds of phenotypic validation.

IL-1β = assay: In vitro chemical screen (Spectrum collection): IL-1β secretion by E. coli challenged THP-1 cells, DAS-ELISA; assay type: cell-based, human
Protocol: as §1, §2, §3

[1] = THP-1 cells, 10µM compound for 1 hour, then PFA-fixed E. coli (MOI 20) for 24 hours

SMILES | Z score TNFa (TNF; [1]) | Z score IL1b (IL-1β; [1]) | Z score TNFa (TNF) | Z score IL1b (IL-1β)
C[C@H](NCCc1ccc(O)cc1)[C@H](O)c1ccc(O)cc1 (racemic) [Ritodrine hydrochloriide] | -2,149761571 | -1,268303571 |  | 
O=C1C=CC(=O)c2ccccc21 [1,4-naphthoquinone] | -2,77797604 | -1,349015947 |  | 
CC1(C)C(=O)C=C[C@]2(C)[C@H]3CC[C@@]4(C)[C@H](c5ccoc5)OC(=O)[C@H]5O[C@]54[C@]3(C)C=C[C@@H]12 [7-desacetoxy-6,7-dehydrogedunin] | -2,517707805 | -1,789647817 |  | 
CC(=O)Oc1c2c(c(CC=C(C)C)c3c1C(=O)C1=C[C@@H]4CC5C(C)(C)OC(C/C=C(\C)C(=O)O)(C4=O)[C@@]15O3)OC(C)(CCC=C(C)C)C=C2 (stereo partly drawn) [Acetyl isogambogic acid] | -3,056795183 | -1,48116787 |  | 
CCCCCCc1ccc(O)cc1O.Nc1c2ccccc2nc2ccccc12 [Acrisorcin] | -3,10607388 | -0,959612692 |  | 
CC[C@@]1(O)C[C@H](O[C@H]2C[C@H](N(C)C)[C@H](O)[C@H](C)O2)c2c(cc3c(c2O)C(=O)c2c(O)cccc2C3=O)[C@H]1C(=O)OC [Aklavine hydrochloride] | -3,511681732 | -1,408917561 |  | 
CCC(=O)OCC(=O)[C@@]1(OC(=O)CC)[C@H](C)C[C@H]2[C@H]3[C@H]([C@@H](O)C[C@@]21C)[C@@]1(C)C=CC(=O)C=C1C[C@H]3Cl [Alclometazone dipropionate] | -1,999200408 | -0,922964076 |  | 
CCCCC(CC)CNC(=N)NC(=N)NCCCCCCNC(=N)NC(=N)NCC(CC)CCCC (stereo not drawn) [Alexidine hydrochloride] | -2,648173863 |  |  | 
CC(=O)O[C@@H]1C[C@@]2(C)[C@H](c3ccoc3)C[C@H]3O[C@]32[C@]2(C)C(=O)C(O)=C3C(C)(C)C(=O)C=C[C@]3(C)[C@@H]12 [Anthothecol] | -2,834385142 | -1,868706598 |  | 
S=C=NCc1ccccc1 [Benzyl isothiocyanate] | -2,908582737 | -1,034306584 |  | 
CC(=O)OCC(=O)[C@@]1(O)[C@@H](C)C[C@H]2[C@@H]3CCC4=CC(=O)C=C[C@]4(C)[C@@]3(F)[C@@H](O)C[C@@]21C [Betamethasone acetate] | -2,560814606 | -0,950513609 |  | 
CC1(C)C(=O)C=C[C@@]2(C)C1=C(O)C(=O)[C@]1(C)[C@@H]2CC[C@@]2(C)[C@H](c3ccoc3)C[C@H]3O[C@]321 [Cedrelone] | -2,817231786 | -1,852572153 |  | 
CC1=C(O)C(=O)C=C2C1=CC=C1[C@@]2(C)CC[C@@]2(C)[C@@H]3C[C@](C)(C(=O)O)CC[C@]3(C)CC[C@]12C [Celastrol] | -2,941287145 | -1,499560887 |  | 
C=C1C(=O)O[C@H]2C[C@@H]1C(OC(C)=O)C/C(C)=C/CC/C(C)=C/CC[C@@]2(C)O (stereo partly drawn) [Crassin acetate] | -4,448741528 | -2,126298968 |  | 
Cc1c2oc3c(C)ccc(C(=O)N[C@@H]4C(=O)N[C@H](C(C)C)C(=O)N5CCC[C@H]5C(=O)N(C)CC(=O)N(C)[C@@H](C(C)C)C(=O)O[C@@H]4C)c3nc-2c(C(=O)N[C@@H]2C(=O)N[C@H](C(C)C)C(=O)N3CCC[C@H]3C(=O)N(C)CC(=O)N(C)[C@@H](C(C)C)C(=O)O[C@@H]2C)c(N)c1=O [Dactinomycin] (I: T[dV]P[Sar][NMeV] / II: T[dV]P[Sar][NMeV]; ester I:1-I:C, II:1-II:C; linker I:N-II:N via Actinocin(9to1)) | -4,13760156 | -1,187827575 |  | 
CC1(C)O[C@@H]2C[C@H]3[C@@H]4CCC5=CC(=O)C=C[C@]5(C)[C@H]4[C@@H](O)C[C@]3(C)[C@]2(C(=O)CO)O1 [Desonide] | -2,297715909 | -0,945977097 |  | 
C[C@@H]1C[C@H]2[C@@H]3CCC4=CC(=O)C=C[C@]4(C)[C@@]3(F)[C@@H](O)C[C@]2(C)[C@H]1C(=O)CO [Desoxymetasone] | -2,417754689 | -0,995122645 |  | 
Cc1c(O)c(O)cc2c1CC=C1[C@@]2(C)CC[C@@]2(C)[C@@H]3C[C@](C)(C(=O)O)CC[C@]3(C)CC[C@]12C [Dihydrocelastrol] | -3,387513735 | -1,102010407 |  | 
CC(C)=CCCC1(C)C=Cc2c(O)c3c(c(CC=C(C)C)c2O1)OC12C(=CC4CC1C(C)(C)OC2(C/C=C(/C)C(=O)O)C4O)C3=O (stereo not drawn) [Dihydrogambogic acid] | -2,488781431 | -1,48996453 |  | 

SMILES | Z score TNFa (TNF; [1]) | Z score IL1b (IL-1β; [1]) | Z score TNFa (TNF) | Z score IL1b (IL-1β)
CS(=O)(=O)CCCCN=C=S [Erysolin] | -4,442389411 | -1,162701697 |  | 
CCOc1ccc2nc3cc(N)ccc3c(N)c2c1 [Ethacridine lactate] | -2,218841761 | -1,389229184 |  | 
CC(C)=CCC[C@]1(C)C=Cc2c(O)c3c(c(CC=C(C)C)c2O1)O[C@]12C(=C[C@@H]4CC1C(C)(C)O[C@@]2(C/C=C(/C)C(N)=O)C4=O)C3=O [Gambogic acid amide] | -3,013926221 | -1,517154207 |  | 
CC(C)=CCC[C@]1(C)C=Cc2c(O)c3c(c(CC=C(C)C)c2O1)O[C@]12C(=C[C@@H]4C[C@H]1C(C)(C)O[C@@]2(C/C=C(/C)C(=O)O)C4=O)C3=O [Gambogic acid] | -3,862359373 | -1,529656531 |  | 
CN(C)c1ccc(C(=C2C=CC(=[N+](C)C)C=C2)c2ccc(N(C)C)cc2)cc1 [Gentian violet] | -2,696385799 | -1,835724332 |  | 
C=C1C(=O)O[C@@H]2C[C@@]3(C)CCC[C@H](C)C3=C[C@H]12 [Helenine] | -2,683894042 | -0,943744357 |  | 
CCCCC(=O)O[C@]1(C(=O)CO)CC[C@H]2[C@@H]3CCC4=CC(=O)CC[C@]4(C)[C@H]3[C@@H](O)C[C@@]21C [Hydrocortisone valerate] | -2,794271243 | -2,722889618 |  | 
COc1cc2oc3cc(OC)c(OC)c(CC=C(C)C)c3c(=O)c2c(OC)c1CC=C(C)C [Mangostin trimethyl ether] | -3,162805301 | -1,634164354 |  | 
O=C1c2c(O)ccc(O)c2C(=O)c2c(NCCNCCO)ccc(NCCNCCO)c21 [Mitoxanthrone hydrochloride] | -2,562729474 | -1,158920135 |  | 
COC1=CC(=O)C(O)=C/C1=C\C=C\c1ccccc1 [Obtusaquinone] | -3,829374842 | -1,532189516 |  | 
O=C1C=C2C(=CCOC2O)O1 (stereo not drawn) [Patulin] |  |  | -2,874616362 | -0,902703858
CC(C)=CC1C(C(=O)OCc2cccc(Oc3ccccc3)c2)C1(C)C (stereo not drawn) [Phenothrin] | -2,810792588 | -0,983918754 |  | 
C[C@]12C=CC(=O)C=C1CC[C@@H]1[C@@H]2[C@@H](O)C[C@@]2(C)[C@H]1CC[C@]2(O)C(=O)COC(=O)CCC(=O)O [Prednisolone hemisuccinate] | -2,72427413 | -2,095888301 |  | 
COC(=O)[C@]1(C)CC[C@]2(C)CC[C@]3(C)C4=CC=C5C(=CC(=O)C(O)=C5C)[C@]4(C)CC[C@@]3(C)[C@@H]2C1 [Pristimerin] | -3,474946679 | -0,952562058 |  | 
CC[C@@]1(O)C[C@H](O[C@H]2C[C@H](N(C)C)[C@H](O)[C@H](C)O2)c2c(cc3c(c2O)C(=O)c2c(O)ccc(O)c2C3=O)[C@H]1C(=O)OC [Pyrromycin] | -2,980583694 | -1,456377283 |  | 
Cc1cc(/C=C/c2ccc3cc(N(C)C)ccc3[n+]2C)c(C)n1-c1ccccc1 [Pyrvinium pamoate] | -2,268148981 | -1,683811286 |  | 
C[n+]1cc2c3c(ccc2c2ccc4cc5c(cc4c21)OCO5)OCO3 [Sanguinarine sulfate] | -2,651620816 | -1,160017114 |  | 
C[C@H]1CC[C@]2(NC1)O[C@H]1C[C@H]3[C@@H]4CC[C@H]5C[C@@H](O[C@@H]6O[C@H](CO)[C@H](O[C@@H]7O[C@H](CO)[C@@H](O)[C@H](O[C@@H]8OC[C@@H](O)[C@H](O)[C@H]8O)[C@H]7O[C@@H]7O[C@H](CO)[C@@H](O)[C@H](O)[C@H]7O)[C@H](O)[C@H]6O)CC[C@]5(C)[C@H]4CC[C@]3(C)[C@H]1[C@@H]2C [Tomatine] | -4,440219344 | -2,626087357 |  | 
C=C1C(=O)O[C@@H]2[C@H]3O[C@]3(C)CC/C=C(\C)CC[C@@H]12 [parthenolide] | -2,842267433 | -0,921962794 |  | 
